Conditions: Cohort 1 200 mg QD
Protocol: All responses were assessed by the investigators.
Reported Adverse Events. […] All-cause mortality data collected during the study were assessed for all enrolled participants. Disease progression related death was not reported as AE.
Number of Participants With Treatment-emergent Adverse Events (TEAEs), and Treatment-emergent Serious Adverse Events (TESAEs). […] TEAEs included both SAEs and non-SAEs. […] Analysis was performed on safety population which included all participants who received at least 1 dose of study medication.

CC(C)NC(=O)COc1cccc(-c2nc(Nc3ccc4[nH]ncc4c3)c3ccccc3n2)c1 [Belumosudil, 2-{3-[4-(1H-indazol-5-ylamino)-2-quinazolinyl]phenoxy}-N-(propan-2-yl) acetamide]
Hypogonadism: # Events: 1
Hypogonadism: Affected/At Risk: 1/17
Hypogonadism: Affected/At Risk (%): (5.88%)
Hypokalaemia: # Events: 1
Hypokalaemia: Affected/At Risk: 1/17
Hypokalaemia: Affected/At Risk (%): (5.88%)
Hypomagnesaemia: # Events: 1
Hypomagnesaemia: Affected/At Risk: 1/17
Hypomagnesaemia: Affected/At Risk (%): (5.88%)
Hyponatraemia: # Events: 1
Hyponatraemia: Affected/At Risk: 1/17
Hyponatraemia: Affected/At Risk (%): (5.88%)
Hypophosphataemia: # Events: 1
Hypophosphataemia: Affected/At Risk: 1/17
Hypophosphataemia: Affected/At Risk (%): (5.88%)
Hypothermia: # Events: 0
Hypothermia: Affected/At Risk: 0/17
Hypothermia: Affected/At Risk (%): (0%)
Hypothyroidism: # Events: 2
Hypothyroidism: Affected/At Risk: 1/17
Hypothyroidism: Affected/At Risk (%): (5.88%)
Hypoxia: # Events: 1
Hypoxia: Affected/At Risk: 1/17
Hypoxia: Affected/At Risk (%): (5.88%)
Impaired healing: # Events: 1
Impaired healing: Affected/At Risk: 1/17
Impaired healing: Affected/At Risk (%): (5.88%)
Influenza like illness: # Events: 1
Influenza like illness: Affected/At Risk: 1/17
Influenza like illness: Affected/At Risk (%): (5.88%)
Influenza: # Events: 2
Influenza: Affected/At Risk: 2/17
Influenza: Affected/At Risk (%): (11.76%)
Insomnia: # Events: 0
Insomnia: Affected/At Risk: 0/17
Insomnia: Affected/At Risk (%): (0%)
Irritability: # Events: 1
Irritability: Affected/At Risk: 1/17
Irritability: Affected/At Risk (%): (5.88%)
Joint range of motion decreased: # Events: 0
Joint range of motion decreased: Affected/At Risk: 0/17
Joint range of motion decreased: Affected/At Risk (%): (0%)
Lacrimation increased: # Events: 0
Lacrimation increased: Affected/At Risk: 0/17
Lacrimation increased: Affected/At Risk (%): (0%)
Leukaemia recurrent: # Events: 1
Leukaemia recurrent: Affected/At Risk: 1/17
Leukaemia recurrent: Affected/At Risk (%): (5.88%)
Leukocytosis: # Events: 1
Leukocytosis: Affected/At Risk: 1/17
Leukocytosis: Affected/At Risk (%): (5.88%)
Ligament sprain: # Events: 1
Ligament sprain: Affected/At Risk: 1/17
Ligament sprain: Affected/At Risk (%): (5.88%)
Limb injury: # Events: 1
Limb injury: Affected/At Risk: 1/17
Limb injury: Affected/At Risk (%): (5.88%)
Macular degeneration: # Events: 0
Macular degeneration: Affected/At Risk: 0/17
Macular degeneration: Affected/At Risk (%): (0%)
Migraine: # Events: 0
Migraine: Affected/At Risk: 0/17
Migraine: Affected/At Risk (%): (0%)
Muscle spasms: # Events: 1
Muscle spasms: Affected/At Risk: 1/17
Muscle spasms: Affected/At Risk (%): (5.88%)
Muscle spasticity: # Events: 1
Muscle spasticity: Affected/At Risk: 1/17
Muscle spasticity: Affected/At Risk (%): (5.88%)
Muscular weakness: # Events: 6
Muscular weakness: Affected/At Risk: 4/17
Muscular weakness: Affected/At Risk (%): (23.53%)
Musculoskeletal chest pain: # Events: 1
Musculoskeletal chest pain: Affected/At Risk: 1/17
Musculoskeletal chest pain: Affected/At Risk (%): (5.88%)
Myalgia: # Events: 2
Myalgia: Affected/At Risk: 1/17
Myalgia: Affected/At Risk (%): (5.88%)
Nail disorder: # Events: 1
Nail disorder: Affected/At Risk: 1/17
Nail disorder: Affected/At Risk (%): (5.88%)
Nasal congestion: # Events: 3
Nasal congestion: Affected/At Risk: 3/17
Nasal congestion: Affected/At Risk (%): (17.65%)
Nausea: # Events: 10
Nausea: Affected/At Risk: 6/17
Nausea: Affected/At Risk (%): (35.29%)
Neck pain: # Events: 1
Neck pain: Affected/At Risk: 1/17
Neck pain: Affected/At Risk (%): (5.88%)
Nephrotic syndrome: # Events: 1
Nephrotic syndrome: Affected/At Risk: 1/17
Nephrotic syndrome: Affected/At Risk (%): (5.88%)
Neuropathy peripheral: # Events: 0
Neuropathy peripheral: Affected/At Risk: 0/17
Neuropathy peripheral: Affected/At Risk (%): (0%)
Neutrophil count decreased: # Events: 1
Neutrophil count decreased: Affected/At Risk: 1/17
Neutrophil count decreased: Affected/At Risk (%): (5.88%)
Nocturia: # Events: 1
Nocturia: Affected/At Risk: 1/17
Nocturia: Affected/At Risk (%): (5.88%)
Non-cardiac chest pain: # Events: 0
Non-cardiac chest pain: Affected/At Risk: 0/17
Non-cardiac chest pain: Affected/At Risk (%): (0%)
Obesity: # Events: 2
Obesity: Affected/At Risk: 2/17
Obesity: Affected/At Risk (%): (11.76%)
Oedema peripheral: # Events: 3
Oedema peripheral: Affected/At Risk: 3/17
Oedema peripheral: Affected/At Risk (%): (17.65%)
Oedema: # Events: 0
Oedema: Affected/At Risk: 0/17
Oedema: Affected/At Risk (%): (0%)
Oesophageal ulcer: # Events: 0
Oesophageal ulcer: Affected/At Risk: 0/17
Oesophageal ulcer: Affected/At Risk (%): (0%)
Oral candidiasis: # Events: 3
Oral candidiasis: Affected/At Risk: 2/17
Oral candidiasis: Affected/At Risk (%): (11.76%)
Oropharyngeal pain: # Events: 1
Oropharyngeal pain: Affected/At Risk: 1/17
Oropharyngeal pain: Affected/At Risk (%): (5.88%)
Orthopnoea: # Events: 1
Orthopnoea: Affected/At Risk: 1/17
Orthopnoea: Affected/At Risk (%): (5.88%)
Osteonecrosis: # Events: 1
Osteonecrosis: Affected/At Risk: 1/17
Osteonecrosis: Affected/At Risk (%): (5.88%)
Osteopenia: # Events: 0
Osteopenia: Affected/At Risk: 0/17
Osteopenia: Affected/At Risk (%): (0%)
Osteoporosis: # Events: 0
Osteoporosis: Affected/At Risk: 0/17
Osteoporosis: Affected/At Risk (%): (0%)
Overdose: # Events: 1
Overdose: Affected/At Risk: 1/17
Overdose: Affected/At Risk (%): (5.88%)
Pain in extremity: # Events: 2
Pain in extremity: Affected/At Risk: 2/17
Pain in extremity: Affected/At Risk (%): (11.76%)
Pain: # Events: 3
Pain: Affected/At Risk: 3/17
Pain: Affected/At Risk (%): (17.65%)
Palpitations: # Events: 1
Palpitations: Affected/At Risk: 1/17
Palpitations: Affected/At Risk (%): (5.88%)
Paraesthesia: # Events: 0
Paraesthesia: Affected/At Risk: 0/17
Paraesthesia: Affected/At Risk (%): (0%)
Participants with TEAE: 17 (100%) participants
Participants with TESAE: 5 (29%) participants
Pericardial effusion: # Events: 1
Pericardial effusion: Affected/At Risk: 1/17
Pericardial effusion: Affected/At Risk (%): (5.88%)
Peripheral coldness: # Events: 1
Peripheral coldness: Affected/At Risk: 1/17
Peripheral coldness: Affected/At Risk (%): (5.88%)
Peripheral sensory neuropathy: # Events: 0
Peripheral sensory neuropathy: Affected/At Risk: 0/17
Peripheral sensory neuropathy: Affected/At Risk (%): (0%)
Phlebitis: # Events: 0
Phlebitis: Affected/At Risk: 0/17
Phlebitis: Affected/At Risk (%): (0%)
Photophobia: # Events: 0
Photophobia: Affected/At Risk: 0/17
Photophobia: Affected/At Risk (%): (0%)
Platelet count decreased: # Events: 3
Platelet count decreased: Affected/At Risk: 1/17
Platelet count decreased: Affected/At Risk (%): (5.88%)
Pleural effusion: # Events: 1
Pleural effusion: Affected/At Risk: 1/17
Pleural effusion: Affected/At Risk (%): (5.88%)
Pneumonia respiratory syncytial viral: # Events: 0
Pneumonia respiratory syncytial viral: Affected/At Risk: 0/17
Pneumonia respiratory syncytial viral: Affected/At Risk (%): (0%)
Pneumonia: # Events: 2
Pneumonia: Affected/At Risk: 1/17
Pneumonia: Affected/At Risk (%): (5.88%)
Pollakiuria: # Events: 1
Pollakiuria: Affected/At Risk: 1/17
Pollakiuria: Affected/At Risk (%): (5.88%)
Presyncope: # Events: 0
Presyncope: Affected/At Risk: 0/17
Presyncope: Affected/At Risk (%): (0%)
Productive cough: # Events: 2
Productive cough: Affected/At Risk: 2/17
Productive cough: Affected/At Risk (%): (11.76%)
Proteinuria: # Events: 2
Proteinuria: Affected/At Risk: 2/17
Proteinuria: Affected/At Risk (%): (11.76%)
Pruritus: # Events: 1
Pruritus: Affected/At Risk: 1/17
Pruritus: Affected/At Risk (%): (5.88%)
Pseudomonas infection: # Events: 1
Pseudomonas infection: Affected/At Risk: 1/17
Pseudomonas infection: Affected/At Risk (%): (5.88%)
Pulmonary mass: # Events: 0
Pulmonary mass: Affected/At Risk: 0/17
Pulmonary mass: Affected/At Risk (%): (0%)
Pyrexia: # Events: 3
Pyrexia: Affected/At Risk: 1/17
Pyrexia: Affected/At Risk (%): (5.88%)
Rash erythematous: # Events: 0
Rash erythematous: Affected/At Risk: 0/17
Rash erythematous: Affected/At Risk (%): (0%)
Rash maculo-papular: # Events: 2
Rash maculo-papular: Affected/At Risk: 2/17
Rash maculo-papular: Affected/At Risk (%): (11.76%)
Rash pustular: # Events: 0
Rash pustular: Affected/At Risk: 0/17
Rash pustular: Affected/At Risk (%): (0%)
Rash: # Events: 2
Rash: Affected/At Risk: 1/17
Rash: Affected/At Risk (%): (5.88%)
Red blood cells urine positive: # Events: 0
Red blood cells urine positive: Affected/At Risk: 0/17
Red blood cells urine positive: Affected/At Risk (%): (0%)
Renal failure: # Events: 0
Renal failure: Affected/At Risk: 0/17
Renal failure: Affected/At Risk (%): (0%)
Respiratory syncytial virus infection: # Events: 0
Respiratory syncytial virus infection: Affected/At Risk: 0/17
Respiratory syncytial virus infection: Affected/At Risk (%): (0%)
Respiratory tract infection fungal: # Events: 1
Respiratory tract infection fungal: Affected/At Risk: 1/17
Respiratory tract infection fungal: Affected/At Risk (%): (5.88%)
Respiratory tract infection: # Events: 1
Respiratory tract infection: Affected/At Risk: 1/17
Respiratory tract infection: Affected/At Risk (%): (5.88%)
Restless legs syndrome: # Events: 0
Restless legs syndrome: Affected/At Risk: 0/17
Restless legs syndrome: Affected/At Risk (%): (0%)
Rosacea: # Events: 0
Rosacea: Affected/At Risk: 0/17
Rosacea: Affected/At Risk (%): (0%)
SAE Abdominal wall haematoma, # events: 0
SAE Abdominal wall haematoma, affected/at risk: 0/17
SAE Acute kidney injury, # events: 0
SAE Acute kidney injury, affected/at risk: 0/17
SAE Acute lymphocytic leukaemia recurrent, # events: 0
SAE Acute lymphocytic leukaemia recurrent, affected/at risk: 0/17
SAE Acute respiratory failure, # events: 1
SAE Acute respiratory failure, affected/at risk: 1/17
SAE Anaphylactic reaction, # events: 1
SAE Anaphylactic reaction, affected/at risk: 1/17
SAE Bacteraemia, # events: 0
SAE Bacteraemia, affected/at risk: 0/17
SAE Cardiac arrest, # events: 0
SAE Cardiac arrest, affected/at risk: 0/17
SAE Cellulitis, # events: 0
SAE Cellulitis, affected/at risk: 0/17
SAE Chronic graft versus host disease in skin, # events: 0
SAE Chronic graft versus host disease in skin, affected/at risk: 0/17
SAE Citrobacter infection, # events: 0
SAE Citrobacter infection, affected/at risk: 0/17
SAE Dyspnoea, # events: 0
SAE Dyspnoea, affected/at risk: 0/17
SAE Embolism, # events: 0
SAE Embolism, affected/at risk: 0/17
SAE Febrile neutropenia, # events: 0
SAE Febrile neutropenia, affected/at risk: 0/17
SAE Graft versus host disease in lung, # events: 0
SAE Graft versus host disease in lung, affected/at risk: 0/17
SAE Hypoxia, # events: 0
SAE Hypoxia, affected/at risk: 0/17
SAE Influenza A virus test positive, # events: 1
SAE Influenza A virus test positive, affected/at risk: 1/17
SAE Influenza like illness, # events: 0
SAE Influenza like illness, affected/at risk: 0/17
SAE Lacunar infarction, # events: 0
SAE Lacunar infarction, affected/at risk: 0/17
SAE Leukaemia recurrent, # events: 0
SAE Leukaemia recurrent, affected/at risk: 0/17

Source: patent publication US20250255867A1 (Kadmon Corporation, LLC, priority 2022, published 2025)
